The target of experiment [1] is human α2β3γ2 GABAARs (benzodiazepine site) (Homo sapiens (Human), UniProt P18507+P47869). As to the kind of experiment: In vitro radioligand binding assay ([3H]Ro15-1788 displacement), α2-GABAAR Ki. The method in brief: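 Membranes from dexamethasone-induced mouse L(tk−) cells stably expressing the human receptor were incubated 1 h at 4° C with 4 nM [3H]Ro15-1788 and graded compound; nonspecific binding with 1-3 μM TP003. Filter-bound radioactivity counted; Ki from IC50 by Cheng-Prusoff using the measured radioligand Kd.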
Sequence of human α2β3γ2 GABAARs (benzodiazepine site) (P47869 29-451): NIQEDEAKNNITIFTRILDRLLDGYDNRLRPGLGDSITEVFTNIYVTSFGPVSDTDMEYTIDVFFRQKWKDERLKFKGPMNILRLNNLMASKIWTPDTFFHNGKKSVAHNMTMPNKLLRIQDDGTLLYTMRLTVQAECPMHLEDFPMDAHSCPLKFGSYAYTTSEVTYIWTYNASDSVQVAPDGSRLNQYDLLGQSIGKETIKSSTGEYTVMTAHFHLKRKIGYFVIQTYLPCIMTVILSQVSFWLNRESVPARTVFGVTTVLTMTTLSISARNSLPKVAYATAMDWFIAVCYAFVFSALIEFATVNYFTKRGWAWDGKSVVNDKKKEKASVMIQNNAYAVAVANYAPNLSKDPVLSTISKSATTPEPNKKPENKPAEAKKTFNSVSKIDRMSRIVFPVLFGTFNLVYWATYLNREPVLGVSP
Sequence of human α2β3γ2 GABAARs (benzodiazepine site) (P28472 26-473 partner): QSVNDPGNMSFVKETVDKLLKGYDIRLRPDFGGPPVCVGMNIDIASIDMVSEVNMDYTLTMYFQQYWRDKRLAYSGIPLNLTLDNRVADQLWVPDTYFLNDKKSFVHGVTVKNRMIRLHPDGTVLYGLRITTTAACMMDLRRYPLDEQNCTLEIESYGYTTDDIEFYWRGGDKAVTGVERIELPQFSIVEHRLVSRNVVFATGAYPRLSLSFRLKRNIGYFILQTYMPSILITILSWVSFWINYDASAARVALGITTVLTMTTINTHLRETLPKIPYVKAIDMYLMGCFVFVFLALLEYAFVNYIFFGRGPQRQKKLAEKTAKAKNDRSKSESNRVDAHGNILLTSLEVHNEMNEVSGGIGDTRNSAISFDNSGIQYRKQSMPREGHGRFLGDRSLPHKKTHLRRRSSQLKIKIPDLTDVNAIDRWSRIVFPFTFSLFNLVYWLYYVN
Sequence of human α2β3γ2 GABAARs (benzodiazepine site) (P18507 40-475): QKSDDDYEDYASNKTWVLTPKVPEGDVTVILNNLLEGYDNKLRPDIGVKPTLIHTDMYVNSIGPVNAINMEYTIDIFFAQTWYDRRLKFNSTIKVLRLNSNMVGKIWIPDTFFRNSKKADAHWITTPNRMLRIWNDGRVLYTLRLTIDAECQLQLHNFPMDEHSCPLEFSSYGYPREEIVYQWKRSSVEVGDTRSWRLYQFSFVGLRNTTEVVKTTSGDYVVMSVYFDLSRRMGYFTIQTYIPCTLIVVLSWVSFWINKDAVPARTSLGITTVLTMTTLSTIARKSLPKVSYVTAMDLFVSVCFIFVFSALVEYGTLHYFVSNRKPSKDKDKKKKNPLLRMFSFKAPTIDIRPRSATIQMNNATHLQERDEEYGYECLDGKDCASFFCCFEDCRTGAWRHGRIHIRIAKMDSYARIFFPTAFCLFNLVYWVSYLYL

The target of experiment [2] is human α3β3γ2 GABAARs (benzodiazepine site) (Homo sapiens (Human), UniProt P18507+P34903). Put plainly: In vitro radioligand binding assay ([3H]Ro15-1788 displacement), α3-GABAAR Ki. The settings on record: L(tk-) cell membranes, 4 nM [3H]Ro15-1788. The protocol:
The affinity (Ki) of compounds for the benzodiazepine site of human recombinant GABAARs was measured by their ability to inhibit the binding of the selective benzodiazepine antagonist [^3H]Ro15-1788 ([^3H] flumazenil).
Mouse L(tk^−) cells stably expressing human α1β3γ2, α2β3γ2, α3β3γ2, α5β3γ2 GABAARs were generated by transfection of the individual subunits in the dexamethasone-inducible expression vector pMSGneo in mouse L(tk^−) cells (Hadingham et al., 1993, Mol. Pharmacol. 43:970-975 and 1993, Mol. Pharmacol. 44:1211-1218).
L(tk^−) cells stably expressing human α1β3γ2, α2β3γ2, α3β3γ2, α5β3γ2 GABAARs were maintained in DMEM F12 medium supplemented with 10% Foetal Bovine Serum, 1% Penicillin/Streptomycin and 1 mg/mL Geneticin G418 in an incubator at 37° C. with a humidified atmosphere with 5% CO2. Dexamethasone was added to the culture medium to induce GABAAR expression.
L(tk−) cells were harvested and membranes were prepared for each receptor combination in either TE buffer (10 mM Tris·CI/0.1 mM EDTA, pH 7.5) or phosphate buffer (K2PO4 10 mM, pH 7.0) (Hadingham et al. (1992) Proc. Natl. Acad. Sci. USA; 89 (14): 6378-82). Protein concentration, receptor expression and the Kd of [^3H]Ro15-1788 were determined before Ki value of the compounds were evaluated. For Kd evaluation, saturation binding curves were obtained by incubating membrane with various concentrations of [^3H]Ro15-1788 (82.5 Ci/mM), with nonspecific binding measured in the presence of 1-3 μM TP003.
For Ki evaluation, cell membranes were incubated with 4 nM [^3H]Ro15-1788 along with a range of concentrations of test compound. Nonspecific binding was determined using 1-3 μM TP003. All incubations were performed for 1 hour at 4° C. in assay buffer. The total assay volume was 0.5 mL, containing 40 μg/well α1β3γ2, 30 μg/well α2β3γ2, 40 μg/well α3β3γ2 and 30 μg/well for α5β3γ2 of membrane protein. Incubations were terminated by filtration and washing with ice cold Tris-HCl buffer (50 mM, pH=7.4) over Whatman GF/B filters and the radioactivity of the filters was measured using liquid scintillation counting.
The % inhibition of [^3H]Ro15-1788 binding was plotted as a function of compound concentration and the IC50 calculated. From the IC50, the affinity (Ki) was calculated using the method of Cheng and Prusoff using the Kd values obtained for [^3H]Ro15-1788.

The next experiment relates to human α3β3γ2 GABAARs. Put plainly: In vitro electrophysiological recording assay (automated patch-clamp), α3-GABAAR relative efficacy. Particulars: % efficacy normalised to diazepam; GABA EC10-20; concentration generally >= 100 times Ki. The format is cell-based. On the procedure:
The efficacy of modulators was evaluated using the automated patch-clamp platforms QPatch16 (Sophion, Copenhagen, Denmark) or SyncroPatch 384PE (Nanion, Germany).
For QPatch electrophysiology testing L(tk^−) cells stably expressing human α1β3γ2, α2β3γ2, α3β3γ2, α5β3γ2 GABAARs were used. HEK293 cells stably expressing human α1β3γ2L, α2β3γ2L, α3β3γ2L and α5β3γ2L GABAARs were used for the SyncroPatch 384PE experiments.
All experiments were carried out at room temperature (20-22° C.) using a standard whole cell procedure and physiological solutions. Gigaseals were formed upon execution of a combined suction/voltage protocol with subsequent increased suction leading to the whole-cell configuration.
The currents recorded were acquired at either 1 KHz or 2 KHz and filtered using a Bessel filter. Whole-cell currents were measured at a holding potential of-65 mV (QPatch) or −80 mV (SyncroPatch).
For QPatch experiments, the extracellular solution contained of: 145 mM NaCl, 4 mM KCl, 1 mM MgCl2, 2 mM CaCl2), 10 mM HEPES, 10 mM D-glucose (pH 7.4), and the intracellular solution consisted of: 96 mM KCl, 28 mM CsCl, 25 mM KOH, 4.3 mM CaCl2), 1.4 mM MgCl2, 10 mM EGTA, 10 mM HEPES, 3 mM MgATP (pH 7.2). The osmolarities of the extracellular and intracellular solutions were 305 and 295 mOsm respectively.
For SyncroPatch experiments, the extracellular recording solution contained: 140 mM NaCl, 4 mM KCl, 2 mM CaCl2), 1 mM MgCl2, 10 mM HEPES, 5 mM glucose (pH 7.4 with NaOH and osmolarity of c. 300-310 mOsm). The intracellular recording solution consisted of: 90 mM KCl, 50 mM KF, 1.5 mM MgCl2, 11.1 mM EGTA and 10 mM HEPES (pH 7.2 with KOH and osmolarity of c. 300 mOsm). 2 mM of NaATP was added to the intracellular solution on the day of testing.
The effects of modulators were evaluated in the presence of a submaximal GABA concentration, giving typically less than 30% activation of the response elicited by a saturating GABA concentration. To check and ensure baseline current stability before compound addition, two to five consecutive applications of GABA EC10-20 separated by wash steps were performed before compound addition. The test compound was applied 1 min at least prior to co-application with GABA EC10-20. Following a further wash step, a saturating concentration of GABA was applied at the end of each recording, allowing the accurate evaluation for each cell of the percentage baseline activation elicited by the submaximal GABA applied.
The compounds were first dissolved in DMSO as a 10 mM stock and then further diluted to the testing concentrations so that the final DMSO concentration in the extracellular recording solution was 0.1% (QPatch) or 0.2% (SyncroPatch).
The % efficacy of modulators was determined from the GABA elicited currents recorded in the presence and absence of the test compound, using the formula:
[((compound peak current−leak)−(GABA peak current-leak))/(GABA peak current−leak)]*100,
where ‘leak’ is the leak baseline current at the holding potential, ‘compound peak current’ is the current elicited by co-application of compound and GABA, and ‘GABA peak current’ is the current elicited by GABA alone at the last GABA application before compound addition. The results were presented as ‘relative efficacy’ for each compound generally at a concentration equal or higher than 100 times their determined Ki. The relative efficacy of a compound was calculated by normalising its % efficacy to the corresponding % efficacy of diazepam that was separately determined.
(The patch-clamp technique gives a direct electrical read-out from membranes.)

Another experiment relates to human α2β3γ2 GABAARs. Put plainly: In vitro electrophysiological recording assay (automated patch-clamp), α2-GABAAR relative efficacy. The format is cell-based. Particulars: % efficacy normalised to diazepam; GABA EC10-20; concentration generally >= 100 times Ki. The method in brief:
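Automated whole-cell patch clamp at 20-22° C on L(tk^−) cells (QPatch, −65 mV) or HEK293 cells (SyncroPatch, −80 mV) stably expressing the human receptor. Compound pre-applied ≥1 min, then co-applied with GABA EC10-20; % potentiation of leak-corrected peak current, normalised to diazepam, typically at ≥100× Ki.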

pKi: −log10 of the molar value.

From patent US20250197368A1 (priority 2020, published 2025) come the findings set out here.

What is called pKi is the negative decadic logarithm of the Ki, by convention in mol/L.

Take `CCCNC(=O)c1c(N)c2cccc(-c3nc(OC)ncc3F)c2[nH]c1=O` [Example 42, 4-Amino-8-(5-fluoro-2-methoxy-pyrimidin-4-yl)-2-oxo-N-propyl-1H-quinoline-3-carboxamide]: the pKi is 9.25 in experiment [1] and 9.19 in experiment [2]. Further, the “α3-GABAAR Relative Efficacy (vs. Diazepam)” value (shortened to “α3-GABAAR Relative Efficacy”) in the experiment with human α3β3γ2 GABAARs turned out to be 0.21. Besides, in the experiment with human α2β3γ2 GABAARs, the “α2-GABAAR Relative Efficacy (vs. Diazepam)” value (shortened to “α2-GABAAR Relative Efficacy”) is reported as 0.25.
For `[2H]C([2H])([2H])C([2H])([2H])C([2H])([2H])NC(=O)c1c(N)c2cccc(-c3cnccc3OC)c2[nH]c1=O` [Example 62, 4-Amino-8-(4-methoxypyridin-3-yl)-2-oxo-N-(propyl-d7)-1,2-dihydroquinoline-3-carboxamide] the same measures were 8.16, 8.27, 0.44 and 0.28.
Taken in the same sequence, the figures for `CCCNC(=O)c1c(N)c2cccc(-c3nc(CO)ccc3F)c2[nH]c1=O` [Example 11, 4-Amino-8-[3-fluoro-6-(hydroxymethyl)-2-pyridyl]-2-oxo-N-propyl-1H-quinoline-3-carboxamide] were 8.67, 8.36, 0.24 and 0.32.
Consider `CCCNC(=O)c1c(N)c2cccc(-c3cc(OCc4cccc(C#N)n4)ccc3F)c2[nH]c1=O` [Example 91, 4-Amino-8-(5-((6-cyanopyridin-2-yl)methoxy)-2-fluorophenyl)-2-oxo-N-propyl-1,2-dihydroquinoline-3-carboxamide], for which the values for the pKi in experiment [1] and in experiment [2] were 9.34 and 8.89, respectively. Also, the “α3-GABAAR Relative Efficacy” value in the experiment with human α3β3γ2 GABAARs is given as 0.29. The “α2-GABAAR Relative Efficacy” value in the experiment with human α2β3γ2 GABAARs came out at 0.18.
For `CCCNC(=O)c1c(N)c2cccc(-c3cc(OCc4ccc(C)nc4)ccc3F)c2[nH]c1=O` [Example 110, 4-Amino-8-[2-fluoro-5-[(6-methyl-3-pyridyl)methoxy]phenyl]-2-oxo-N-propyl-1H-quinoline-3-carboxamide] the same measures were 9.23, 9.01, 0.30 and 0.25.
`CCCNC(=O)c1c(N)c2cccc(-c3ccnc(CO)c3)c2[nH]c1=O` [Example 32, 4-Amino-8-[2-(hydroxymethyl)-4-pyridyl]-2-oxo-N-propyl-1H-quinoline-3-carboxamide]: the pKi is 8.51 in experiment [1] and 8.16 in experiment [2]. In addition, the “α3-GABAAR Relative Efficacy” value with human α3β3γ2 GABAARs turned out to be 0.29. The “α2-GABAAR Relative Efficacy” value in the experiment on human α2β3γ2 GABAARs came out at 0.24.
Consider `CCCNC(=O)c1c(N)c2cccc(-c3cc(OCc4c[nH]cn4)ccc3F)c2[nH]c1=O` [Example 124, 8-(5-((1H-Imidazol-4-yl)methoxy)-2-fluorophenyl)-4-amino-2-oxo-N-propyl-1,2-dihydroquinoline-3-carboxamide], for which the negative-log Ki (pKi) was 9.01 in experiment [1] and 8.81 in experiment [2]. Also, the “α3-GABAAR Relative Efficacy” value with human α3β3γ2 GABAARs came to 0.34. The “α2-GABAAR Relative Efficacy” value with human α2β3γ2 GABAARs stood at 0.28.
Taken in the same sequence, the figures for `CCCNC(=O)c1c(N)c2cccc(-c3nc(C)ccc3F)c2[nH]c1=O` [Example 7, 4-Amino-8-(3-fluoro-6-methyl-2-pyridyl)-2-oxo-N-propyl-1H-quinoline-3-carboxamide] were 9.23, 8.93, 0.43 and 0.16.
